What was measured:
Test in all cases: relative viability (nuclei count vs DMSO), 5 days (fraction); higher = more cells survive
[1] = compound: CN(C)C/C=C/C(=O)Nc1cc2c(Nc3ccc(F)c(Cl)c3)ncnc2cc1O[C@H]1CCOC1 [Afatinib] + CS(=O)(=O)CCNCc1ccc(-c2ccc3ncnc(Nc4ccc(OCc5cccc(F)c5)c(Cl)c4)c3c2)o1 [Lapatinib] (partner 2 µM)
Method in brief: (§1)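 Each reported value is a median over duplicate plates. It expresses relative viability: treated-well nuclei count divided by vehicle-well nuclei count. Lung cancer cell lines in 1536-well plates were dosed by pin tool a day after seeding, alone with one drug or with a fixed anchor-drug dose plus five library-drug doses (not always all listed) in √10 steps, and nuclei were counted after 5 days.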

[2] = compound: CN(C)C/C=C/C(=O)Nc1cc2c(Nc3ccc(F)c(Cl)c3)ncnc2cc1O[C@H]1CCOC1 [Afatinib] + C[C@]1(O)C[C@@H](c2nc(-c3ccc4ccc(-c5ccccc5)nc4c3)c3c(N)nccn32)C1 [Linsitinib] (partner 1 µM)
Method in brief: as §1

[3] = compound: CN(C)C/C=C/C(=O)Nc1cc2c(Nc3ccc(F)c(Cl)c3)ncnc2cc1O[C@H]1CCOC1 [Afatinib] + COc1cccc2cc(-c3nc([C@H]4CC[C@H](C(=O)O)CC4)n4ncnc(N)c34)[nH]c12 [OSI-027] (partner 0.5 µM)
Method in brief: as §1

[4] = compound: CN(C)C/C=C/C(=O)Nc1cc2c(Nc3ccc(F)c(Cl)c3)ncnc2cc1O[C@H]1CCOC1 [Afatinib] + CCNC(=O)c1noc(-c2cc(C(C)C)c(O)cc2O)c1-c1ccc(CN2CCOCC2)cc1 [Luminespib] (partner 0.01 µM)
Method in brief: as §1

Cell Line | relative viability ([1]; first compound 0.005 µM) | relative viability ([1]; first compound 0.01581 µM) | relative viability ([1]; first compound 0.05 µM) | relative viability ([1]; first compound 0.1581 µM) | relative viability ([1]; first compound 0.5 µM) | relative viability ([2]; first compound 0.005 µM) | relative viability ([2]; first compound 0.01581 µM) | relative viability ([2]; first compound 0.05 µM) | relative viability ([2]; first compound 0.1581 µM) | relative viability ([2]; first compound 0.5 µM) | relative viability ([3]; first compound 0.005 µM) | relative viability ([3]; first compound 0.01581 µM) | relative viability ([3]; first compound 0.05 µM) | relative viability ([3]; first compound 0.1581 µM) | relative viability ([3]; first compound 0.5 µM) | relative viability ([4]; first compound 0.005 µM) | relative viability ([4]; first compound 0.01581 µM) | relative viability ([4]; first compound 0.05 µM) | relative viability ([4]; first compound 0.1581 µM) | relative viability ([4]; first compound 0.5 µM)
PC-14 | 0.295 | 0.222 | 0.258 | 0.301 | 0.288 | 0.271 | 0.255 | 0.176 | 0.237 | 0.23 | 0.103 | 0.104 | 0.136 | 0.131 | 0.0975 | 0.152 | 0.115 | 0.19 | 0.126 | 0.144
HOP-62 | 1.12 | 1.12 | 1.11 | 1.03 | 1.09 | 1.03 | 1.13 | 1.2 | 1.03 | 1.04 | 0.947 | 0.835 | 0.826 | 0.933 | 0.827 | 1.04 | 0.977 | 0.968 | 0.994 | 0.89
NCI-H358 | 0.502 | 0.356 | 0.408 | 0.436 | 0.432 | 0.466 | 0.329 | 0.366 | 0.318 | 0.264 | 0.484 | 0.316 | 0.239 | 0.19 | 0.189 | 0.27 | 0.0409 | 0.189 | 0.101 | 0.125
SK-MES-1 | 0.423 | 0.393 | 0.459 | 0.444 | 0.467 | 1 | 0.975 | 0.543 | 0.406 | 0.429 | 0.36 | 0.405 | 0.307 | 0.265 | 0.26 | 0.476 | 0.399 | 0.481 | 0.277 | 0.49
NCI-H1666 | 0.592 | 0.621 | 0.618 | – | 0.834 | 0.724 | 0.743 | 0.56 | – | 0.561 | 0.88 | 0.759 | 0.657 | 0.581 | 0.612 | 0.973 | 0.931 | 0.796 | 0.807 | 0.808
NCI-H1355 | 1.03 | 1.08 | 1 | 0.945 | 1.03 | 0.744 | 0.828 | 0.728 | 0.586 | 0.662 | 0.388 | 0.341 | 0.348 | 0.361 | 0.276 | 0.703 | 0.685 | 0.642 | 0.647 | 0.582
HCC-827 | 0.0458 | 0.174 | 0.186 | 0.186 | 0.198 | 0.202 | 0.163 | 0.18 | 0.172 | 0.176 | 0.159 | 0.122 | 0.153 | 0.153 | 0.141 | 0.228 | 0.133 | 0.227 | 0.169 | 0.148
HARA | 0.727 | 0.668 | 0.608 | 0.688 | 0.888 | 0.481 | 0.803 | 0.238 | 0.209 | 0.26 | 0.365 | 0.228 | 0.163 | 0.234 | 0.293 | 0.719 | 0.327 | 0.425 | 0.334 | 0.458
NCI-H322M | 0.554 | 0.547 | 0.499 | 0.57 | 0.465 | 0.847 | 0.616 | 0.468 | 0.419 | 0.588 | 0.511 | 0.422 | 0.463 | 0.356 | 0.397 | 0.705 | 0.566 | 0.443 | 0.496 | 0.405
NCI-H2347 | 0.934 | 0.985 | 0.832 | 0.987 | 0.996 | 1.04 | 0.933 | 1.03 | 1.08 | 1.03 | 0.403 | 0.46 | 0.393 | 0.364 | 0.373 | 0.295 | 0.352 | 0.555 | 0.404 | 0.316
NCI-H1975 | 0.895 | 0.685 | 0.529 | 0.283 | 0.239 | 0.901 | 1.1 | 0.794 | 0.261 | 0.217 | 0.81 | 0.644 | 0.688 | 0.303 | 0.147 | 0.199 | 0.18 | 0.199 | 0.122 | 0.169
UMC-11 | 1.07 | 0.919 | 0.846 | 0.802 | 1 | 0.996 | 0.973 | 1.04 | 0.97 | 1.04 | 0.469 | 0.427 | 0.462 | 0.46 | 0.456 | 1.03 | 1.08 | 1.06 | 1.01 | 0.944
ABC-1 | 1.15 | 1.16 | 1.32 | 0.932 | 1.05 | 0.851 | 0.647 | 0.788 | 0.466 | 0.584 | 0.475 | 0.315 | 0.453 | 0.429 | 0.405 | 0.938 | 0.717 | 0.538 | 0.2 | 0.857
A-427 | 1.09 | 1.09 | 1.01 | 1.03 | 1.04 | 1.1 | 1.15 | 1.11 | 1.08 | 1.07 | 0.426 | 0.321 | 0.446 | 0.519 | 0.358 | 1.1 | 0.926 | 1.04 | 0.968 | 0.915
